Data from ChEMBL document CHEMBL1201862, “PubChem BioAssay data set” (2004).
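How tested: cells in 96-well plates exposed to compound for 48 hours at five concentrations. At the GI50, growth is halved.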 Activity calls are given as the source filed them. No stated cut-off is given here; in the data, active = GI50 up to about 1.1 µM and inactive = higher.

Tests used:
Experiment in all cases: NCI-60 cell line screen, 48 h
SF-295 = system: SF-295
SF-539 = system: SF-539
LOX IMVI = system: LOX IMVI
K562 = system: K562
OVCAR-4 = system: OVCAR-4
A498 = system: A498
NCI-H460 = system: NCI-H460
OVCAR-3 = system: OVCAR-3
RXF 393 = system: RXF 393
HT-29 = system: HT-29
EKVX = system: EKVX
HL-60 = system: HL-60
786-0 = system: 786-0
SNB-19 = system: SNB-19
HCT-15 = system: HCT-15
CCRF-CEM = system: CCRF-CEM

Compound	GI50 (SF-295)	GI50 (SF-539)	GI50 (LOX IMVI)	GI50 (K562)	GI50 (OVCAR-4)	GI50 (A498)	GI50 (NCI-H460)	GI50 (OVCAR-3)	GI50 (RXF 393)	GI50 (HT-29)	GI50 (EKVX)	GI50 (HL-60)	GI50 (786-0)	GI50 (SNB-19)	GI50 (HCT-15) [µM]	GI50 (CCRF-CEM)
C/N=C(\N=c1/ss/c(=N\C)n1C)N(C)C.[O-][Cl+3]([O-])([O-])O	> 100 µM (inactive)	79.1 µM (inactive)	45.9 µM (inactive)	40.7 µM (inactive)	> 100 µM (inactive)	29.2 µM (inactive)	> 100 µM (inactive)	53.1 µM (inactive)	> 100 µM (inactive)	> 100 µM (inactive)	> 100 µM (inactive)	43.5 µM (inactive)	> 100 µM (inactive)	> 100 µM (inactive)		
N/N=C1\C(=O)N(C2CCCCC2)C(=O)C1C(=O)NC1CCCCC1 (configuration not stated)	> 100 µM (inactive)	> 100 µM (inactive)	> 100 µM (inactive)	> 100 µM (inactive)	> 100 µM (inactive)	> 100 µM (inactive)	> 100 µM (inactive)	21 µM (inactive)		> 100 µM (inactive)	> 100 µM (inactive)	26.2 µM (inactive)	> 100 µM (inactive)	> 100 µM (inactive)	> 100	> 100 µM (inactive)
NC(CCc1nc(-c2ccccc2)cs1)C(=O)O (configuration not stated)	> 100 µM (inactive)	> 100 µM (inactive)	> 100 µM (inactive)	> 100 µM (inactive)		> 100 µM (inactive)	> 100 µM (inactive)	> 100 µM (inactive)	> 100 µM (inactive)	> 100 µM (inactive)	> 100 µM (inactive)	> 100 µM (inactive)	81.7 µM (inactive)	> 100 µM (inactive)	> 100	> 100 µM (inactive)
Cc1ccc(NC(=O)CCC/C(CC(=O)c2ccc(Br)cc2)=N/NC(=O)CC#N)cc1	> 100 µM (inactive)		> 100 µM (inactive)		> 100 µM (inactive)		> 100 µM (inactive)	> 100 µM (inactive)	> 100 µM (inactive)	> 100 µM (inactive)	> 100 µM (inactive)	> 100 µM (inactive)	> 100 µM (inactive)	> 100 µM (inactive)		> 100 µM (inactive)
COC(=O)/C(=C/c1ccc(OC)cc1)C(C(=O)O)=C1CCCC1	> 100 µM (inactive)	> 100 µM (inactive)	> 100 µM (inactive)	> 100 µM (inactive)	> 100 µM (inactive)	> 100 µM (inactive)	> 100 µM (inactive)		> 100 µM (inactive)	> 100 µM (inactive)	> 100 µM (inactive)	> 100 µM (inactive)	> 100 µM (inactive)	> 100 µM (inactive)	> 100	> 100 µM (inactive)
O=C1/C(=C/c2cc(O)c(O)c(O)c2)Oc2cc(O)cc(OC3OC(CO)C(O)C(O)C3O)c21 (configuration not stated)	16.5 µM (inactive)	> 100 µM (inactive)	1.73 µM (inactive)	16.9 µM (inactive)	2.06 µM (inactive)	23.9 µM (inactive)	13.9 µM (inactive)	14.9 µM (inactive)		23.9 µM (inactive)	43.6 µM (inactive)	15.6 µM (inactive)	27.9 µM (inactive)	> 100 µM (inactive)	22.4	17.5 µM (inactive)
Cc1nc2c3c(ccc2nc1O)C(=O)c1ccccc1C3=O	> 100 µM (inactive)	40.8 µM (inactive)	41.6 µM (inactive)	> 100 µM (inactive)	> 100 µM (inactive)	20.3 µM (inactive)	37.2 µM (inactive)	> 100 µM (inactive)	13.1 µM (inactive)	> 100 µM (inactive)	23.1 µM (inactive)	> 100 µM (inactive)	> 100 µM (inactive)	> 100 µM (inactive)	48	
CC1CC(C2=CC=CCS2)=Nc2ccccc2S1 (configuration not stated)	> 100 µM (inactive)	> 100 µM (inactive)	> 100 µM (inactive)	> 100 µM (inactive)	> 100 µM (inactive)	> 100 µM (inactive)	> 100 µM (inactive)	> 100 µM (inactive)	> 100 µM (inactive)		> 100 µM (inactive)	> 100 µM (inactive)	> 100 µM (inactive)	71.3 µM (inactive)	> 100	> 100 µM (inactive)
C=CCN1COc2c(cc3c4c(cccc24)C(=O)O3)C1	35.1 µM (inactive)		> 10 µM (inactive)	15.5 µM (inactive)	68.1 µM (inactive)	21.5 µM (inactive)	43.6 µM (inactive)	25.2 µM (inactive)	> 10 µM (inactive)	23.8 µM (inactive)	35.7 µM (inactive)	21.4 µM (inactive)	20.5 µM (inactive)	> 100 µM (inactive)	29.2	19.6 µM (inactive)
COC(=O)C1Cc2c([nH]c3ccccc23)C(C2CCCCC2)N1 (configuration not stated)	> 100 µM (inactive)	> 100 µM (inactive)	> 100 µM (inactive)	> 100 µM (inactive)	> 100 µM (inactive)		> 100 µM (inactive)	> 100 µM (inactive)		> 100 µM (inactive)	> 100 µM (inactive)	> 100 µM (inactive)	> 100 µM (inactive)	> 100 µM (inactive)	> 100	> 100 µM (inactive)
C=CCc1cc(-c2cc(CC=C)c(O)c(CNCCCl)c2)cc(CNCCCl)c1O	17.5 µM (inactive)		15.3 µM (inactive)	17.8 µM (inactive)	22.9 µM (inactive)	18.7 µM (inactive)	16.8 µM (inactive)	21.4 µM (inactive)		17.4 µM (inactive)		17.3 µM (inactive)	28.6 µM (inactive)	30 µM (inactive)	16.4	18.3 µM (inactive)
CCc1cccc(C(C)C)c1NC(=O)C(=O)C(C(=O)C(=O)OC)c1nc2ccccc2nc1O (configuration not stated)	> 100 µM (inactive)		> 100 µM (inactive)	> 100 µM (inactive)	> 100 µM (inactive)	> 100 µM (inactive)	> 100 µM (inactive)		> 100 µM (inactive)	> 100 µM (inactive)	44.7 µM (inactive)	> 100 µM (inactive)	> 100 µM (inactive)	> 100 µM (inactive)	> 100	> 100 µM (inactive)
CC(C)=CCOc1ccc(-c2coc3cc4c(c(O)c3c2=O)C=CC(C)(C)O4)cc1	49.5 µM (inactive)		1.7 µM (inactive)	0.389 µM (active)	16.7 µM (inactive)	14.9 µM (inactive)	63.2 µM (inactive)	2.13 µM (inactive)	> 100 µM (inactive)	> 100 µM (inactive)	5.22 µM (inactive)	> 100 µM (inactive)	96.8 µM (inactive)	56 µM (inactive)	21	43.5 µM (inactive)
O=[PH](O)c1cc2c3ccccc3ccc2c2ccccc12	> 100 µM (inactive)	> 100 µM (inactive)	> 100 µM (inactive)	> 100 µM (inactive)	> 100 µM (inactive)		> 100 µM (inactive)	> 100 µM (inactive)	> 100 µM (inactive)	> 100 µM (inactive)	> 100 µM (inactive)	> 100 µM (inactive)	> 100 µM (inactive)	> 100 µM (inactive)		> 100 µM (inactive)
O=C1C(Cl)C(c2ccccc2)N1n1cnc2ccccc2c1=O (configuration not stated)	> 100 µM (inactive)		> 100 µM (inactive)	> 100 µM (inactive)	> 100 µM (inactive)		> 100 µM (inactive)	> 100 µM (inactive)	76.9 µM (inactive)	> 100 µM (inactive)	44.2 µM (inactive)	> 100 µM (inactive)	> 100 µM (inactive)	60.4 µM (inactive)	> 100	> 100 µM (inactive)
Cc1ccc2c(c1)CNc1ccc(C)cc1CN2	> 100 µM (inactive)	> 100 µM (inactive)	> 100 µM (inactive)	> 100 µM (inactive)	> 100 µM (inactive)		> 100 µM (inactive)	> 100 µM (inactive)		> 100 µM (inactive)	> 100 µM (inactive)	> 100 µM (inactive)	> 100 µM (inactive)	< 0.01 µM (active)	> 100	> 100 µM (inactive)
CC(=O)/C=C1\CC(=O)Nc2ccccc2N1	> 100 µM (inactive)	> 100 µM (inactive)	> 100 µM (inactive)	> 100 µM (inactive)	> 100 µM (inactive)	> 100 µM (inactive)	> 100 µM (inactive)		> 100 µM (inactive)	> 100 µM (inactive)	> 100 µM (inactive)	> 100 µM (inactive)	> 100 µM (inactive)	> 100 µM (inactive)	> 100	2.79 µM (inactive)
CCOc1ccc(NC(=O)CC#N)cc1	> 100 µM (inactive)		> 100 µM (inactive)	> 100 µM (inactive)	> 100 µM (inactive)	> 100 µM (inactive)	> 100 µM (inactive)	> 100 µM (inactive)	> 100 µM (inactive)	> 100 µM (inactive)	> 100 µM (inactive)	> 100 µM (inactive)	> 100 µM (inactive)	> 100 µM (inactive)		> 100 µM (inactive)
CCOc1ccccc1NC(=O)C(=O)Cc1nc2ccccc2s1	> 100 µM (inactive)	> 100 µM (inactive)			90.4 µM (inactive)	> 100 µM (inactive)	> 100 µM (inactive)	> 100 µM (inactive)	> 100 µM (inactive)	> 100 µM (inactive)	> 100 µM (inactive)	> 100 µM (inactive)	> 100 µM (inactive)	> 100 µM (inactive)	> 100	> 100 µM (inactive)
